{
  "source": "paper PMC5218480",
  "about": "(PLoS ONE, 2017)",
  "test_system": "MV-4-11 cells",
  "assay": "Gene expression microarray analysis (Affymetrix PrimeView) and GSEA",
  "type": "cell-based, human",
  "set-up": "RFU PODN (11730768_x_at) / Fold change /veh PODN (11730768_x_at) / RFU LINC00158 (11744669_a_at) / Fold change /veh LINC00158 (11744669_a_at) / RFU DUSP10 (11751237_a_at) / Fold change /veh DUSP10 (11751237_a_at) / RFU ID3 (11757404_x_at) / Fold change /veh ID3 (11757404_x_at) / RFU PLEKHG5 (11737974_s_at) / Fold change /veh PLEKHG5 (11737974_s_at) / RFU LRRC4B (11730491_at) / Fold change /veh LRRC4B (11730491_at) / RFU GIMAP4 (11747438_a_at) / Fold change /veh GIMAP4 (11747438_a_at) / RFU KRT8 (11758183_x_at) / Fold change /veh KRT8 (11758183_x_at) / RFU CNN1 (11734310_a_at) / Fold change /veh CNN1 (11734310_a_at) / RFU VPS37D (11726825_at) / Fold change /veh VPS37D (11726825_at) / RFU C10orf10 (11716522_x_at) / Fold change /veh C10orf10 (11716522_x_at) / RFU KIR2DL2 /// KIR2DL4 /// KIR2DL5A /// KIR2DL5B /// KIR2DS1 /// KIR2DS2 /// KIR2DS3 /// KIR2DS4 /// KIR3DL3 /// KIR3DL3 /// KIR3DS1 (11738374_at) / Fold change /veh KIR2DL2 /// KIR2DL4 /// KIR2DL5A /// KIR2DL5B /// KIR2DS1 /// KIR2DS2 /// KIR2DS3 /// KIR2DS4 /// KIR3DL3 /// KIR3DL3 /// KIR3DS1 (11738374_at) / RFU C1QL1 (11718748_at) / Fold change /veh C1QL1 (11718748_at) / RFU TMPRSS4 (11747572_a_at) / Fold change /veh TMPRSS4 (11747572_a_at) / RFU HAMP (11756126_x_at) / Fold change /veh HAMP (11756126_x_at) / RFU RNFT2 (11725882_a_at) / Fold change /veh RNFT2 (11725882_a_at) / RFU NR4A2 (11747474_a_at) / Fold change /veh NR4A2 (11747474_a_at) / RFU ABCC12 (11746883_a_at) / Fold change /veh ABCC12 (11746883_a_at) / RFU TMEM136 (11760407_x_at) / Fold change /veh TMEM136 (11760407_x_at) / RFU CLDN22 /// WWC2 (11732394_at) / Fold change /veh CLDN22 /// WWC2 (11732394_at) / RFU HLA-DPB1 (11760878_x_at) / Fold change /veh HLA-DPB1 (11760878_x_at) / RFU SPINT1 (11716480_a_at) / Fold change /veh SPINT1 (11716480_a_at) / RFU GAP43 (11754022_s_at) / Fold change /veh GAP43 (11754022_s_at) / RFU A4GNT (11735810_at) / Fold change /veh A4GNT (11735810_at) / RFU PRB3 (11715151_x_at) / Fold change /veh PRB3 (11715151_x_at) / RFU TUBB4B (11761932_at) / Fold change /veh TUBB4B (11761932_at) / RFU CAPN14 (11732068_a_at) / Fold change /veh CAPN14 (11732068_a_at) / RFU TMCC2 (11721928_a_at) / Fold change /veh TMCC2 (11721928_a_at) / RFU IRGQ (11745062_a_at) / Fold change /veh IRGQ (11745062_a_at) / RFU FAM174B (11720279_a_at) / Fold change /veh FAM174B (11720279_a_at) / RFU TMPRSS4 (11748680_a_at) / Fold change /veh TMPRSS4 (11748680_a_at) / RFU FAM212B (11763350_a_at) / Fold change /veh FAM212B (11763350_a_at) / RFU PLEKHG5 (11743358_a_at) / Fold change /veh PLEKHG5 (11743358_a_at) / RFU ZSCAN30 (11745921_a_at) / Fold change /veh ZSCAN30 (11745921_a_at) / RFU CMKLR1 (11741424_a_at) / Fold change /veh CMKLR1 (11741424_a_at) / RFU LOC101060620 /// MAPK8IP1 (11723275_at) / Fold change /veh LOC101060620 /// MAPK8IP1 (11723275_at) / RFU SPTSSB (11747773_x_at) / Fold change /veh SPTSSB (11747773_x_at) / RFU PRSS12 (11739890_at) / Fold change /veh PRSS12 (11739890_at) / RFU BIN1 (11741810_x_at) / Fold change /veh BIN1 (11741810_x_at) / RFU WNT11 (11732464_a_at) / Fold change /veh WNT11 (11732464_a_at) / RFU C10orf10 (11716521_a_at) / Fold change /veh C10orf10 (11716521_a_at) / RFU C5orf56 (11738089_at) / Fold change /veh C5orf56 (11738089_at) / RFU CYB561 (11721691_x_at) / Fold change /veh CYB561 (11721691_x_at) / RFU ANKRD19P (11752326_a_at) / Fold change /veh ANKRD19P (11752326_a_at) / RFU OR2T12 /// OR2T33 /// OR2T8 (11738714_s_at) / Fold change /veh OR2T12 /// OR2T33 /// OR2T8 (11738714_s_at) / RFU VCAN (11748164_a_at) / Fold change /veh VCAN (11748164_a_at) / RFU JSRP1 (11732532_at) / Fold change /veh JSRP1 (11732532_at) / RFU KRTAP10-11 (11738290_x_at) / Fold change /veh KRTAP10-11 (11738290_x_at) / RFU MYO3A (11730013_a_at) / Fold change /veh MYO3A (11730013_a_at) / RFU EBF3 (11725865_a_at) / Fold change /veh EBF3 (11725865_a_at) / RFU CAMK2N1 (11719241_x_at) / Fold change /veh CAMK2N1 (11719241_x_at) / RFU C5orf56 (11738088_a_at) / Fold change /veh C5orf56 (11738088_a_at) / RFU OLFML3 (11715873_a_at) / Fold change /veh OLFML3 (11715873_a_at) / RFU LOC100653217 /// NTM (11731650_a_at) / Fold change /veh LOC100653217 /// NTM (11731650_a_at) / RFU MAPK11 (11762145_a_at) / Fold change /veh MAPK11 (11762145_a_at) / RFU FIZ1 (11724087_x_at) / Fold change /veh FIZ1 (11724087_x_at) / RFU OASL (11726364_x_at) / Fold change /veh OASL (11726364_x_at) / RFU SOX15 (11748057_x_at) / Fold change /veh SOX15 (11748057_x_at) / RFU CD79A (11719716_a_at) / Fold change /veh CD79A (11719716_a_at) / RFU HIST1H1D (11736915_at) / Fold change /veh HIST1H1D (11736915_at) / RFU CASKIN2 (11723855_a_at) / Fold change /veh CASKIN2 (11723855_a_at) / RFU LOC730098 (11760151_x_at) / Fold change /veh LOC730098 (11760151_x_at) / RFU OR4N2 (11742367_at) / Fold change /veh OR4N2 (11742367_at) / RFU PRRT2 (11749266_a_at) / Fold change /veh PRRT2 (11749266_a_at) / RFU SNX32 (11753110_a_at) / Fold change /veh SNX32 (11753110_a_at) / RFU CDHR5 (11726645_a_at) / Fold change /veh CDHR5 (11726645_a_at) / RFU RCAN1 (11760418_a_at) / Fold change /veh RCAN1 (11760418_a_at) / RFU FAM167A (11723789_a_at) / Fold change /veh FAM167A (11723789_a_at) / RFU FAM26E (11764081_at) / Fold change /veh FAM26E (11764081_at) / RFU ISYNA1 (11749810_s_at) / Fold change /veh ISYNA1 (11749810_s_at) / RFU ACY1 (11761880_at) / Fold change /veh ACY1 (11761880_at) / RFU 11764098_at / Fold change /veh 11764098_at / RFU SAMD14 (11745864_x_at) / Fold change /veh SAMD14 (11745864_x_at) / RFU NPB (11741838_a_at) / Fold change /veh NPB (11741838_a_at) / RFU TMPRSS6 (11731388_a_at) / Fold change /veh TMPRSS6 (11731388_a_at) / RFU KRTAP10-2 (11738614_at) / Fold change /veh KRTAP10-2 (11738614_at) / RFU ARHGAP8 /// PRR5-ARHGAP8 (11727945_x_at) / Fold change /veh ARHGAP8 /// PRR5-ARHGAP8 (11727945_x_at) / RFU KRTAP5-7 /// NADSYN1 (11734609_at) / Fold change /veh KRTAP5-7 /// NADSYN1 (11734609_at) / RFU RASL12 (11751679_a_at) / Fold change /veh RASL12 (11751679_a_at) / RFU CDKN2B (11736163_a_at) / Fold change /veh CDKN2B (11736163_a_at) / RFU PRF1 (11729649_at) / Fold change /veh PRF1 (11729649_at) / RFU, ZNF638 /// ZNF638-IT1 / Fold change vs veh, ZNF638 /// ZNF638-IT1 / RFU, PANK3 / Fold change vs veh, PANK3 / RFU, SH3YL1 / Fold change vs veh, SH3YL1 / RFU, ZEB2 / Fold change vs veh, ZEB2 / RFU, NRIP1 / Fold change vs veh, NRIP1 / RFU, PTTG1IP / Fold change vs veh, PTTG1IP / RFU, CAPN2 / Fold change vs veh, CAPN2 / RFU, MED14 / Fold change vs veh, MED14 / RFU, SNORA58 / Fold change vs veh, SNORA58 / RFU, C1orf63 / Fold change vs veh, C1orf63 / RFU, LRRFIP1 / Fold change vs veh, LRRFIP1 / RFU, NDUFAF7 / Fold change vs veh, NDUFAF7 / RFU, SLC12A2 / Fold change vs veh, SLC12A2 / RFU, IBTK / Fold change vs veh, IBTK / RFU, ESF1 / Fold change vs veh, ESF1 / Fold change vs veh, TMEM50B / RFU, TAOK1 / Fold change vs veh, TAOK1 / RFU, ACBD3 / Fold change vs veh, ACBD3 / RFU, TMA16 / Fold change vs veh, TMA16 / RFU, RWDD3 / Fold change vs veh, RWDD3 / RFU, BCAT1 / Fold change vs veh, BCAT1 / RFU, EDEM3 / Fold change vs veh, EDEM3 / RFU, TMEM33 / Fold change vs veh, TMEM33 / RFU, WDR75 / Fold change vs veh, WDR75 / RFU, AHCTF1 / Fold change vs veh, AHCTF1 / RFU, TFRC / Fold change vs veh, TFRC / RFU, ZDHHC17 / Fold change vs veh, ZDHHC17 / RFU, NOM1 / Fold change vs veh, NOM1 / RFU, ARL8B / Fold change vs veh, ARL8B / RFU, ZBTB11 / Fold change vs veh, ZBTB11 / RFU, TAMM41 / Fold change vs veh, TAMM41 / RFU, KIAA1704 /// LOC100996395 / Fold change vs veh, KIAA1704 /// LOC100996395 / RFU, ING1 / Fold change vs veh, ING1 / RFU, TRMT61B / Fold change vs veh, TRMT61B / RFU, FUBP3 / Fold change vs veh, FUBP3 / RFU, TP53 / Fold change vs veh, TP53 / RFU, TNKS2 / Fold change vs veh, TNKS2 / RFU, ZFP14 / Fold change vs veh, ZFP14 / RFU, ACTR2 / Fold change vs veh, ACTR2 / RFU, PPP3R1 / Fold change vs veh, PPP3R1 / RFU, PIK3R1 / Fold change vs veh, PIK3R1 / RFU, HNRNPA1 / Fold change vs veh, HNRNPA1 / RFU, RNF170 / Fold change vs veh, RNF170 / RFU, ZNF28 / Fold change vs veh, ZNF28 / RFU, RNGTT / Fold change vs veh, RNGTT / RFU, OGT / Fold change vs veh, OGT / RFU, BRD1 / Fold change vs veh, BRD1 / RFU, MARS / Fold change vs veh, MARS / RFU, ZNF655 / Fold change vs veh, ZNF655 / RFU, FAHD1 / Fold change vs veh, FAHD1 / RFU, BDP1 / Fold change vs veh, BDP1 / RFU, LRRCC1 / Fold change vs veh, LRRCC1 / RFU, ARID1A / Fold change vs veh, ARID1A / RFU, ZNF146 / Fold change vs veh, ZNF146 / RFU, ZNF330 / Fold change vs veh, ZNF330 / RFU, GPN3 / Fold change vs veh, GPN3 / RFU, C9orf123 / Fold change vs veh, C9orf123 / RFU, N4BP2L2 / Fold change vs veh, N4BP2L2 / RFU, ARFIP1 / Fold change vs veh, ARFIP1 / RFU, FAM179B / Fold change vs veh, FAM179B / RFU, BCL10 / Fold change vs veh, BCL10 / RFU, UHRF1BP1L / Fold change vs veh, UHRF1BP1L / RFU, BET1 / Fold change vs veh, BET1 / RFU, CNOT2 / Fold change vs veh, CNOT2 / RFU, ZNF268 / Fold change vs veh, ZNF268 / Fold change vs veh, ZNF507 / RFU, DGCR2 / Fold change vs veh, DGCR2 / RFU, WDSUB1 / Fold change vs veh, WDSUB1 / Fold change vs veh, HSP90B1 /// MIR3652 / RFU, ADSS / Fold change vs veh, ADSS / RFU, GK / Fold change vs veh, GK / RFU, ZNF148 / Fold change vs veh, ZNF148 / RFU, TAF9 / Fold change vs veh, TAF9 / RFU, SLC1A5 / Fold change vs veh, SLC1A5 / RFU, SLMO2 / Fold change vs veh, SLMO2 / RFU, ABCC4 / Fold change vs veh, ABCC4 / RFU, LOC101060439 /// RAP1B / Fold change vs veh, LOC101060439 /// RAP1B / RFU, RFX7 / Fold change vs veh, RFX7 / RFU, GTPBP10 / Fold change vs veh, GTPBP10 / RFU, CNEP1R1 / Fold change vs veh, CNEP1R1 / RFU, BIVM-ERCC5 /// ERCC5 / Fold change vs veh, BIVM-ERCC5 /// ERCC5 / RFU, ILF3 / Fold change vs veh, ILF3 / RFU 11762660_at / Fold change /veh 11762660_at / RFU VCAN (11757783_s_at) / Fold change /veh VCAN (11757783_s_at) / RFU DDX43 (11728927_at) / Fold change /veh DDX43 (11728927_at) / RFU KRT8 (11758188_x_at) / Fold change /veh KRT8 (11758188_x_at) / RFU NKD1 (11759106_at) / Fold change /veh NKD1 (11759106_at) / RFU SRD5A1 (11742802_a_at) / Fold change /veh SRD5A1 (11742802_a_at) / RFU TPSAB1 /// TPSB2 (11721975_s_at) / Fold change /veh TPSAB1 /// TPSB2 (11721975_s_at) / RFU GSTM3 (11746129_a_at) / Fold change /veh GSTM3 (11746129_a_at) / RFU IL23R (11737362_x_at) / Fold change /veh IL23R (11737362_x_at) / RFU TMEM51 (11727254_a_at) / Fold change /veh TMEM51 (11727254_a_at) / RFU PIWIL2 (11732686_x_at) / Fold change /veh PIWIL2 (11732686_x_at) / RFU ORM1 (11744905_x_at) / Fold change /veh ORM1 (11744905_x_at) / RFU CCDC152 (11743942_at) / Fold change /veh CCDC152 (11743942_at) / RFU ECM1 (11717891_a_at) / Fold change /veh ECM1 (11717891_a_at) / RFU IL23R (11748794_a_at) / Fold change /veh IL23R (11748794_a_at) / RFU TNFAIP8L3 (11732012_x_at) / Fold change /veh TNFAIP8L3 (11732012_x_at) / RFU MBOAT4 (11741988_at) / Fold change /veh MBOAT4 (11741988_at) / RFU 11764193_at / Fold change /veh 11764193_at / RFU TMEM53 (11763286_at) / Fold change /veh TMEM53 (11763286_at) / RFU MAGEB2 (11727129_at) / Fold change /veh MAGEB2 (11727129_at) / RFU TMEM200A (11744735_a_at) / Fold change /veh TMEM200A (11744735_a_at) / RFU CCDC152 (11751479_a_at) / Fold change /veh CCDC152 (11751479_a_at) / RFU FAM211A (11726209_a_at) / Fold change /veh FAM211A (11726209_a_at) / RFU RGS16 (11746705_a_at) / Fold change /veh RGS16 (11746705_a_at) / RFU VCAN (11755009_s_at) / Fold change /veh VCAN (11755009_s_at) / RFU RHOB (11743442_s_at) / Fold change /veh RHOB (11743442_s_at) / RFU RGS16 (11720943_a_at) / Fold change /veh RGS16 (11720943_a_at) / RFU RGS16 (11720944_at) / Fold change /veh RGS16 (11720944_at) / RFU, VPS4B / Fold change vs veh, VPS4B / RFU, CREB1 / Fold change vs veh, CREB1 / RFU, DNAJC13 / Fold change vs veh, DNAJC13 / RFU, GNAQ / Fold change vs veh, GNAQ / RFU, CDK5R1 / Fold change vs veh, CDK5R1 / RFU, ZRANB3 / Fold change vs veh, ZRANB3 / RFU, CUL4A / Fold change vs veh, CUL4A / RFU, CCNY / Fold change vs veh, CCNY / RFU, UFL1 / Fold change vs veh, UFL1 / RFU, COG3 / Fold change vs veh, COG3 / RFU, DIAPH2 / Fold change vs veh, DIAPH2 / RFU, SKA2 / Fold change vs veh, SKA2 / RFU, AFF3 / Fold change vs veh, AFF3 / RFU, LMF1 / Fold change vs veh, LMF1 / RFU, IPO11 / Fold change vs veh, IPO11 / RFU, DFFB / Fold change vs veh, DFFB / RFU, FOXP1 / Fold change vs veh, FOXP1 / RFU, CARD8 / Fold change vs veh, CARD8 / RFU, STRN3 / Fold change vs veh, STRN3 / RFU, ADK / Fold change vs veh, ADK / RFU, RASSF2 / Fold change vs veh, RASSF2 / RFU, WIPF1 / Fold change vs veh, WIPF1 / RFU, LARP1B / Fold change vs veh, LARP1B / RFU, RASA1 / Fold change vs veh, RASA1 / RFU, RB1 / Fold change vs veh, RB1 / RFU, PPFIA1 / Fold change vs veh, PPFIA1 / RFU, MAT2A / Fold change vs veh, MAT2A / RFU, CCT5 / Fold change vs veh, CCT5 / RFU, WDR92 / Fold change vs veh, WDR92 / RFU, CUX1 / Fold change vs veh, CUX1 / RFU, TTC7A / Fold change vs veh, TTC7A / RFU, TMEM135 / Fold change vs veh, TMEM135 / RFU, DEPTOR / Fold change vs veh, DEPTOR / RFU, CPM / Fold change vs veh, CPM / RFU, DNAJB6 / Fold change vs veh, DNAJB6 / RFU, CACNA2D3 / Fold change vs veh, CACNA2D3 / RFU, DTX4 / Fold change vs veh, DTX4 / RFU, TFCP2 / Fold change vs veh, TFCP2 / RFU, GMCL1 /// GMCL1P1 / Fold change vs veh, GMCL1 /// GMCL1P1 / RFU, AEBP2 / Fold change vs veh, AEBP2 / RFU, SNHG1 /// SNORD22 /// SNORD25 /// SNORD26 /// SNORD27 /// SNORD28 /// SNORD29 /// SNORD31 / Fold change vs veh, SNHG1 /// SNORD22 /// SNORD25 /// SNORD26 /// SNORD27 /// SNORD28 /// SNORD29 /// SNORD31 / Fold change (Aza/veh), C12orf56 (ProbeSet 11735607_a_at) / Fold change (ACY-1035/veh), C12orf56 (ProbeSet 11735607_a_at) / Fold change (Aza/veh), FGFR1OP (ProbeSet 11751329_s_at) / Fold change (ACY-1035/veh), FGFR1OP (ProbeSet 11751329_s_at) / Fold change (Aza/veh), VPS36 (ProbeSet 11739960_a_at) / Fold change (ACY-1035/veh), VPS36 (ProbeSet 11739960_a_at) / RFU SYPL1 (11715823_x_at) / Fold change /veh SYPL1 (11715823_x_at) / RFU IGFBP7 (11715501_s_at) / Fold change /veh IGFBP7 (11715501_s_at) / RFU REEP3 (11722064_at) / Fold change /veh REEP3 (11722064_at) / RFU IGLL1 (11728026_x_at) / Fold change /veh IGLL1 (11728026_x_at): dose or concentration left out as unconfirmed",
  "settings": "ProbeSet 11723141_at; LIST B",
  "data": [
    {"molecule": "Nc1ccc(-c2cccs2)cc1NC(=O)c1ccc2c(c1)cc(C1CC1)n2CCN1CCOCC1", "note": "[ACY-1035]", "values": [
      {"measurement": "RFU, ZBTB11", "value": 113.11, "unit": "RFU"}
    ]}
  ]
}
